In ChEMBL document CHEMBL4680334, “Fluorescent image-based high-content screening of extracts of natural resources for cell cycle inhibitors and identification of a new sesquiterpene quinone from the sponge, Dactylospongia metachromia” (Bioorg Med Chem, 2021):
Activity calls are given as the source filed them. The rule behind the calls is not given here.

How the values were obtained:
[1] = test system: HeLa; experiment: Cytotoxicity against human HeLa cells harboring Fucci2 assessed as reduction in cell growth incubated for 3 days by MTT assay; assay type: functional, cell-based; conditions: 72 h
[2] = test system: HeLa; experiment: Inhibition of cell cycle progression in human HeLa cells harboring Fucci2 assessed as cell cycle arrest at G2/M phase at 2 times of IC50 incubated for 2 days by fluorescence microscopic analysis; assay type: functional, cell-based; conditions: time 2.0 day
[3] = test system: HeLa; experiment: Inhibition of cell cycle progression in human HeLa cells harboring Fucci2 assessed as cell cycle arrest at S phase at 2 times of IC50 incubated for 2 days by fluorescence microscopic analysis; assay type: functional, cell-based; conditions: time 2.0 day
[4] = test system: HeLa; experiment: Induction of cell cycle arrest in human HeLa cells assessed as accumulation at S phase at 15 uM incubated for 1 day by propidium iodide staining based flow cytometry analysis (reference value: 26.1 %); assay type: functional
[5] = test system: HeLa; experiment: Induction of cell cycle arrest in human HeLa cells assessed as accumulation at G1 phase at 15 uM incubated for 1 day by propidium iodide staining based flow cytometry analysis (reference value: 59.7 %); assay type: functional
[6] = test system: HeLa; experiment: Induction of cell cycle arrest in human HeLa cells assessed as accumulation in G2/M phase at 15 uM incubated for 1 day by propidium iodide staining based flow cytometry analysis (reference value: 14.2 %); assay type: functional

Compound	IC50 [1]	inhibition [2]	inhibition [3]	Activity [4]	Activity [5]	Activity [6]
CC1=CCC[C@H]2[C@](C)(CC3=C(O)C(=O)C=C(NCCC[S+](C)[O-])C3=O)[C@@H](C)CC[C@]12C (stereo partly drawn) [NAKIJIQUINONE I]	16 µM	Active	Active			
CC1=CCC[C@H]2[C@](C)(CC3=C(O)C(=O)C=C(NCCC(C)C)C3=O)[C@@H](C)CC[C@]12C [NAKIJIQUINONE N]	30 µM	Active	Active			
CC1=CCC[C@H]2[C@](C)(CC3=C(O)C(=O)C=C(N)C3=O)[C@@H](C)CC[C@]12C	18 µM	Active	Active	46.5%	27.2%	26.3%
COC(=O)c1ccc(O)c(C[C@]2(C)[C@@H](C)CC[C@]3(C)C(C)=CCC[C@@H]23)c1	13 µM	inactive	inactive			
CC1=CCC[C@H]2[C@](C)(CC3=C(O)C(=O)C=C(NCCc4ccccc4)C3=O)[C@@H](C)CC[C@]12C [NAKIJIQUINONE Q]	36 µM	Active	Active			
